Assay results taken from US20070015827A1, “Methods and compositions for treating ophthalmic conditions via serum retinol, serum retinol binding protein (RBP), and/or serum retinol-RBP modulation” (Sytera, Inc., priority 2005, published 2007).
“Also recorded” adds a separate entry of the source.

Columns and labels:
RBP = RBP (Homo sapiens, UniProt P02753); test: Competition binding assay RBP-retinol/HPR by fluorescence quenching
Excerpt: Based upon these findings, we sought to further explore the mechanism(s) of retinol reduction during HPR treatment. A tenable hypothesis is that HPR may displace retinol by competing at the retinol binding site on RBP. […] Therefore, one can measure displacement of retinol from the RBP holoprotein by observing decreases in both protein (340 nm) and retinol (470 nm) fluorescence. We performed a competition binding assay using RBP-retinol/HPR concentrations which were similar to those determined from the 14 day trial at 20 mg/kg HPR described above. […] In the control assays, decreases in retinol fluorescence were associated with concomitant increases in protein fluorescence, see FIG. 3a. This effect was determined to be due to temperature effects as the dissociation constant of RBP-retinol increases (decreased affinity) with […] at 37C. […] Increases of HPR beyond equimolar amounts relative to RBP holoprotein (e.g., 2.0 μM HPR to 1.0 μM RBP) will produce a population of RBP which is largely associated with HPR.

abcr null mutant mice = test: Lipofuscin autofluorescence in RPE and light microscopy of retina; assay type: in vivo, mouse
[1] = in vivo; cited from earlier work

## CC1=C(/C=C/C(C)=C/C=C/C(C)=C/C(=O)Nc2ccc(O)cc2)C(C)(C)CCC1 [HPR, N-(4-hydroxyphenyl)retinamide]
RBP
  competitive binding of HPR to RBP: dose-dependent and saturable
RBP; physiological temperature (37C), protein (340 nm) and retinol (470 nm) fluorescence
  displacement of retinol from RBP-retinol holoprotein: efficiently displaces retinol
Abcr null mutant mice; HPR daily for 28 days
  lipofuscin autofluorescence in the RPE: significantly reduces; also recorded: less than that of an age-matched wild-type animal
Abcr null mutant mice; HPR-treated animals
  retinal morphology (light microscopy): no aberrant morphology
[1]
  effect on serum retinol and RBP: reductions in serum retinol and RBP; also recorded: profound reductions
